Test [1] has as its target T1, Tyrosine-protein kinase JAK3 (Homo sapiens) (UniProt P52333).
T1 sequence (whole entry): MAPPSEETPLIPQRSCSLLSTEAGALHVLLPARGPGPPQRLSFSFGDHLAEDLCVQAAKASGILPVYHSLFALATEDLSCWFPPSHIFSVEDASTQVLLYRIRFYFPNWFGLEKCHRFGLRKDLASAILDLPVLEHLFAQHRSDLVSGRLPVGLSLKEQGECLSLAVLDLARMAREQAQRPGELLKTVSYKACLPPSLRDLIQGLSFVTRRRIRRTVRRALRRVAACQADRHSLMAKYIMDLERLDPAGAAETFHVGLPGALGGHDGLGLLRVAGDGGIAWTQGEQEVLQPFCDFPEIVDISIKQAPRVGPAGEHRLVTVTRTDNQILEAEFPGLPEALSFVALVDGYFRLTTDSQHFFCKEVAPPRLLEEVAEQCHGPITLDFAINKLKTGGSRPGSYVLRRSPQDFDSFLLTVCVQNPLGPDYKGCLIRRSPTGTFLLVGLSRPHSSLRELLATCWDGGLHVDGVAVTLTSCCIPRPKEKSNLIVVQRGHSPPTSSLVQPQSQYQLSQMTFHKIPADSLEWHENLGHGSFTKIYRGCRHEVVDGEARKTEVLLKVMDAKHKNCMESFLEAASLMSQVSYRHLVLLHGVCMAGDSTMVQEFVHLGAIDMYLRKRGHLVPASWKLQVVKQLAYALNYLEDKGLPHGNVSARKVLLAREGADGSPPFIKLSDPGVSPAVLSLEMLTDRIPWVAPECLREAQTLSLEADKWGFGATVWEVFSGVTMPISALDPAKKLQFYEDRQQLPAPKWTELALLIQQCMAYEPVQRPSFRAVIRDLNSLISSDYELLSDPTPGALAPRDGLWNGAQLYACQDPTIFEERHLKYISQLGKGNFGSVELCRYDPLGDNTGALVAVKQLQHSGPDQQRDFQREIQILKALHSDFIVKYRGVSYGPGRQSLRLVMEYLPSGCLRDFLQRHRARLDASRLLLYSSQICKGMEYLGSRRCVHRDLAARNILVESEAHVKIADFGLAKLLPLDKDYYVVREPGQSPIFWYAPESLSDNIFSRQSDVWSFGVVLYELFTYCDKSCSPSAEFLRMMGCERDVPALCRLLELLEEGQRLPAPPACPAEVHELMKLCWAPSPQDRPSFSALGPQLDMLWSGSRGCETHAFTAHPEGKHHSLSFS
The test is described as follows: Selectivity interaction (Kinase panel (Z-LYTE Assay)) EUB0001632a JAK3. The note with it: at 10 µM.

Test [2] has as its target Neuromedin-K receptor (Homo sapiens) (UniProt P29371). The test is described as follows: Selectivity interaction (Eurofins CEREP Diversity Profile (receptors and ion channels)) EUB0000279b TACR3. To be noted: at 10 µM.
The target of test [3] is Tyrosine-protein kinase Lck (Homo sapiens, UniProt P06239). The test is described as follows: Selectivity interaction (KinomeScan (DiscoverX)) EUB0000699a LCK. The note with it: at 10 µM.
The nature of test [4]: Selectivity interaction (KinomeScan (DiscoverX)) EUB0000666a CDK2H. The note with it: at 10 µM.
The target in test [5] is Serine/threonine-protein kinase Nek4 (Homo sapiens) (UniProt P51957). The test can be described thus: Selectivity interaction (KinomeScan (DiscoverX)) EUB0000607a NEK4. The note with it: at 10 µM.
Test [6] has as its target Serine/threonine-protein kinase Chk2 (Homo sapiens) (UniProt O96017). The test can be described thus: Selectivity interaction (Kinase panel (DSF assay)) EUB0001559a CHEK2.
For test [7], the target named is Non-receptor tyrosine-protein kinase TYK2 (Homo sapiens, UniProt P29597). The test is described as follows: Selectivity interaction (KinomeScan (DiscoverX)) EUB0000045b TYK2. To be noted: at 1 µM.
Test [8] has as its target Cyclin-dependent kinase 5 (Homo sapiens, UniProt Q00535). The test is described as follows: Selectivity interaction (KinomeScan (DiscoverX)) EUB0000618a CDK5. To be noted: at 10 µM.
Test [9] can be described thus: Selectivity interaction (KinomeScan (DiscoverX)) EUB0000618a PKNB. The note with it: at 10 µM.
Test [10] addresses Serine/threonine-protein kinase Nek6 (Homo sapiens) (UniProt Q9HC98). The test can be described thus: Selectivity interaction (KinomeScan (DiscoverX)) EUB0000092b NEK6. The note with it: at 10 µM.
For test [11], the target named is T2, Tyrosine-protein kinase ZAP-70 (Homo sapiens) (UniProt P43403).
T2 sequence (whole entry): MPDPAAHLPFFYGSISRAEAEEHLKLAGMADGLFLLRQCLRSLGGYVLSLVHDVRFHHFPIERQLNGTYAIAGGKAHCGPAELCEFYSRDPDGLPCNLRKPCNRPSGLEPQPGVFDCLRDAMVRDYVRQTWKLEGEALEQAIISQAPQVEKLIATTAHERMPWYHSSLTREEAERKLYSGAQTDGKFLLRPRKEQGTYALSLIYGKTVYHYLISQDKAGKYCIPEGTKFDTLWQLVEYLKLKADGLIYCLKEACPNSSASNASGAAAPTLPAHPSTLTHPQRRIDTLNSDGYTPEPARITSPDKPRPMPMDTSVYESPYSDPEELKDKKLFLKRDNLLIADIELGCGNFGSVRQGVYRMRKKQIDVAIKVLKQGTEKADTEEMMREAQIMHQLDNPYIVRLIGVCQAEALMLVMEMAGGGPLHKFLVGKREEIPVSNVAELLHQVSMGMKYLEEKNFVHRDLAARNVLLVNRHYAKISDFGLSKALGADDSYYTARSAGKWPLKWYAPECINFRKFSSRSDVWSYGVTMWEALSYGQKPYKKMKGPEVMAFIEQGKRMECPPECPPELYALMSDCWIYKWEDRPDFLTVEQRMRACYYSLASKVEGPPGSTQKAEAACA
The test is described as follows: Selectivity interaction (KinomeScan (DiscoverX)) EUB0001079a ZAP70. The note with it: at 1 µM.

For test [12], the target named is T3, Interleukin-1 receptor-associated kinase 4 (Homo sapiens) (UniProt Q9NWZ3).
T3 sequence (whole entry): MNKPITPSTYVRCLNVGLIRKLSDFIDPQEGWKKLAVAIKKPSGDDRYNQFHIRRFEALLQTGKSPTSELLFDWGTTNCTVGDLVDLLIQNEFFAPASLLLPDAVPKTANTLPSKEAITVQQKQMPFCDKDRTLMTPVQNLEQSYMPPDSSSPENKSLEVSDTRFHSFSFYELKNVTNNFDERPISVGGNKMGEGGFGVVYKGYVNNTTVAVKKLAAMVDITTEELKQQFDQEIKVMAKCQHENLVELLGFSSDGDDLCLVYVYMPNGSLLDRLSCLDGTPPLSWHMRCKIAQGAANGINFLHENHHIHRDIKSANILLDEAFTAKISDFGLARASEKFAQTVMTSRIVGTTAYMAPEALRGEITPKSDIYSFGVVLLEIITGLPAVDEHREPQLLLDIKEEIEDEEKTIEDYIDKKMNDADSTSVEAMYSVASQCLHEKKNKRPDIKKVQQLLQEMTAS
The test is described as follows: Selectivity interaction (Kinase panel (KiNativ target engagement assay in Jurkat cells)) EUB0001635a IRAK4. It is filed as cell-based. To be noted: Selectivity number of off-targets 0.0, Selectivity number of targets 233.0, Source Knowledge https://www.sciencedirect.com/science/article/pii/S2451945619300674?via%3Dihub, at 1 µM.

Sequence of Tyrosine-protein kinase Lck (P06239 2-509 limits assumed): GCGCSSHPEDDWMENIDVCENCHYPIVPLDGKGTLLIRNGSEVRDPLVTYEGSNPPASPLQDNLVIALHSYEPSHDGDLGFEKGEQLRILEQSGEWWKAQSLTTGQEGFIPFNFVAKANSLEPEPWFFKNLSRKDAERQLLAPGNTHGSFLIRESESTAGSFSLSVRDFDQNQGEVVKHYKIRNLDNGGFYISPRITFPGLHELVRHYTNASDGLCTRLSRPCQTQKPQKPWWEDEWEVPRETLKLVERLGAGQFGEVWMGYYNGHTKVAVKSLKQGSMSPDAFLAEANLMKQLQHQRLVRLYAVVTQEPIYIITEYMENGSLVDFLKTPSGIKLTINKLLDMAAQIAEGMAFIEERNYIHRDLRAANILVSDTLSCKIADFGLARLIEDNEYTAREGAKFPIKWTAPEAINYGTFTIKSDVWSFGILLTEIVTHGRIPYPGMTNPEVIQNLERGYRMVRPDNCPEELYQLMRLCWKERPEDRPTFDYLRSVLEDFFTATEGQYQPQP
Sequence of Serine/threonine-protein kinase Nek6 (Homo sapiens) (Q9HC98 whole entry): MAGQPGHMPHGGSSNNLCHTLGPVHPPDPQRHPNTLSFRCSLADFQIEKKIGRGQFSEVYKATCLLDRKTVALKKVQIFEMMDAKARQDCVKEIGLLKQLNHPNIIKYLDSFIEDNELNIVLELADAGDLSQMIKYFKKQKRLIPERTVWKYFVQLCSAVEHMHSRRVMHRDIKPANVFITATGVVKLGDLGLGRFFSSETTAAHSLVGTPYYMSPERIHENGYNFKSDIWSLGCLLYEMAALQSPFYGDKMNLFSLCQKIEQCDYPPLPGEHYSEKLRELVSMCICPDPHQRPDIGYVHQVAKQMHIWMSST
Sequence of Serine/threonine-protein kinase Chk2 (Homo sapiens) (O96017 whole entry): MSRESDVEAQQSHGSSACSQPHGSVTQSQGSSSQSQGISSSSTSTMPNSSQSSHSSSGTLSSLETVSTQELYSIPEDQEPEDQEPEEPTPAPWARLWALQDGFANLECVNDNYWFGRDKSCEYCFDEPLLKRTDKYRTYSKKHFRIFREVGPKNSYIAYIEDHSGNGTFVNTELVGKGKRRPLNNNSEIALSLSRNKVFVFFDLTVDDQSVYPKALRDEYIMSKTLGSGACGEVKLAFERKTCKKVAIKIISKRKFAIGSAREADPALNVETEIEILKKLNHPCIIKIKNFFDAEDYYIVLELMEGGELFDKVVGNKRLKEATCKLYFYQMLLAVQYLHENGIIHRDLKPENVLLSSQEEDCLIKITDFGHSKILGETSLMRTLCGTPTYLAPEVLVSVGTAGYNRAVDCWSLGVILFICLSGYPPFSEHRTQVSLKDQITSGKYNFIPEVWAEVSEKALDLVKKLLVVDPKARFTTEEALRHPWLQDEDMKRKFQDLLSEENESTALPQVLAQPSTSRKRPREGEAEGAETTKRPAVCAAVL
Sequence of Neuromedin-K receptor (Homo sapiens) (P29371 whole entry): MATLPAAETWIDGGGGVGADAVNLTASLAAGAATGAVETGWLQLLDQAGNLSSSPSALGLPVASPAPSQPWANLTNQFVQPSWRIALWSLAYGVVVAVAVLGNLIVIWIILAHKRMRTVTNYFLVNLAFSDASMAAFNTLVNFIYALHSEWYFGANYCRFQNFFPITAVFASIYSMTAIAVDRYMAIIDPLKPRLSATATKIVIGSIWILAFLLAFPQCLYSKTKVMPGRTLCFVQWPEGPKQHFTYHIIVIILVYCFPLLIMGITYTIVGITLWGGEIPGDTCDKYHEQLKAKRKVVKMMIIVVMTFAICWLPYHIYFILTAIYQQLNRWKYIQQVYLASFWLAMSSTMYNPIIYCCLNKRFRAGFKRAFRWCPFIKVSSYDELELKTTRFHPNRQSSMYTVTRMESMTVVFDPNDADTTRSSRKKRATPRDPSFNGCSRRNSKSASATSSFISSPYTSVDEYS
Sequence of Non-receptor tyrosine-protein kinase TYK2 (P29597 whole entry): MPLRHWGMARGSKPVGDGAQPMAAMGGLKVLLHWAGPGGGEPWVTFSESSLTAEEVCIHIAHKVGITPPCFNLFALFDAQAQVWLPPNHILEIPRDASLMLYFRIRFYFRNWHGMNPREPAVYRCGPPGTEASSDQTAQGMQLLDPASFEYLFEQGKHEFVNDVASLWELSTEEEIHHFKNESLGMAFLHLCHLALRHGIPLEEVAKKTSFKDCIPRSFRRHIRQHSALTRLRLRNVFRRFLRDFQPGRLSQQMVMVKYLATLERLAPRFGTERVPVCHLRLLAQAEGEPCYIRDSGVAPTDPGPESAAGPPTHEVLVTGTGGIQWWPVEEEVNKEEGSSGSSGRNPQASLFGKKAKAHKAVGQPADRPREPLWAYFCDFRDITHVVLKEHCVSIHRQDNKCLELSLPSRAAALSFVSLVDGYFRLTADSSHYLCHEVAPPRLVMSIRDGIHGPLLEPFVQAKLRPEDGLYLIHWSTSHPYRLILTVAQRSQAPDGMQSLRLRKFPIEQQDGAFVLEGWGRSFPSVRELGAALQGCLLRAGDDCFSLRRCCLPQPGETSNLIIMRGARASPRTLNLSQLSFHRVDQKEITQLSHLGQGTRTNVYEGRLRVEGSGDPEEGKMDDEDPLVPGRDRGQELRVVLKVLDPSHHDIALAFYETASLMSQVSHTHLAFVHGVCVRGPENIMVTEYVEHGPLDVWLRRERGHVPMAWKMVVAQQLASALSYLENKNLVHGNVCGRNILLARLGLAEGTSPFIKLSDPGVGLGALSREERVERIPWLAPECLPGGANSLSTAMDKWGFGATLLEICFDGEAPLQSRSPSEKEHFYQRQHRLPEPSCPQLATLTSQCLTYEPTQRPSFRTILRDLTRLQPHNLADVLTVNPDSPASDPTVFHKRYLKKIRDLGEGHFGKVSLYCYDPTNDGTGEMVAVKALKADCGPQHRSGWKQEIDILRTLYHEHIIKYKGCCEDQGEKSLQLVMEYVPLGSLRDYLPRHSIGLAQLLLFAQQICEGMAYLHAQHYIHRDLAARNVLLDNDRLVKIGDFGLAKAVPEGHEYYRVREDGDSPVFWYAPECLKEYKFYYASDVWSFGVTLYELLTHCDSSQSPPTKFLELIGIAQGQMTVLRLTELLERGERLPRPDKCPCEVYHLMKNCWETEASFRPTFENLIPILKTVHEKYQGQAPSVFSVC
Sequence of Cyclin-dependent kinase 5 (Q00535 whole entry, looked up): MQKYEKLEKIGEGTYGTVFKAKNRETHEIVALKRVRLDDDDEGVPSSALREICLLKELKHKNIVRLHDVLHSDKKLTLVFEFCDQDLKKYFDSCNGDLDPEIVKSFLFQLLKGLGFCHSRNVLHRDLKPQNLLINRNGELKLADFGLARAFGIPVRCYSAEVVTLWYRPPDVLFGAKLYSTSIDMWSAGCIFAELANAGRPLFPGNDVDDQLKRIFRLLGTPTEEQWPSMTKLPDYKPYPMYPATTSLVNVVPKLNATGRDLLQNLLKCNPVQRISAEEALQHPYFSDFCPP
Sequence of Serine/threonine-protein kinase Nek4 (Homo sapiens) (P51957 whole entry, looked up): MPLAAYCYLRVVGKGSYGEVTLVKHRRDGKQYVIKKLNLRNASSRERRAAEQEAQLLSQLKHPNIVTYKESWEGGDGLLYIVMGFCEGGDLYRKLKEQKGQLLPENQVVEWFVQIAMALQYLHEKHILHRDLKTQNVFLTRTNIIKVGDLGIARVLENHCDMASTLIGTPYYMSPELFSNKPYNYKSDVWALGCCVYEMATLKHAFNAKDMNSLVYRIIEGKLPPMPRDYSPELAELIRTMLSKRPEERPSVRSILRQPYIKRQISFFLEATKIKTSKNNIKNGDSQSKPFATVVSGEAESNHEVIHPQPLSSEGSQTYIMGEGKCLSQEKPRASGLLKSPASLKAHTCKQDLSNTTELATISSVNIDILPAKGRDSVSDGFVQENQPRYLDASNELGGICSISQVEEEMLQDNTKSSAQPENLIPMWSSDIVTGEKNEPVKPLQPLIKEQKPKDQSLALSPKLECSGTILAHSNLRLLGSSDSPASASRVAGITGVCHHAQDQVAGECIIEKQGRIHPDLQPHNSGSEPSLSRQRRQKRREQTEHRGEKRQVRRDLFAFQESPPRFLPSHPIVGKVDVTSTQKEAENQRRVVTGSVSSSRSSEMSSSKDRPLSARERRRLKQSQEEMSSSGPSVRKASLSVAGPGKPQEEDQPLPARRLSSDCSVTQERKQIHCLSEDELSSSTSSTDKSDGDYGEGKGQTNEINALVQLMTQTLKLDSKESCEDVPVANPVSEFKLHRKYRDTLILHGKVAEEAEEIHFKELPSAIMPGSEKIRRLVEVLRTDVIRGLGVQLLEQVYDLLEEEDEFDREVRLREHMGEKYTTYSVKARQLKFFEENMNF

`Cn1cc(-n2cnc3c(NCc4nc5cc(Cl)c(Cl)cc5[nH]4)nc(N4CCOCC4)nc32)cn1` had a % of control in test [1] of 16.9%.

With `CC(=O)c1cc(-c2ccccc2OCC2CC2)c2ncccn12`, the % of control in test [2] stood at 85%. As to `CCN(CC)CCCCNc1ncc2cc(-c3cc(OC)cc(OC)c3)c(NC(=O)NC(C)(C)C)nc2n1`, the % of control in test [3] was found to be 22%.

In [4], `O=C(NOC[C@H](O)CO)c1ccc(F)c(F)c1Nc1ccc(I)cc1F` returned a % of control of 100%. `CNC(=O)Nc1ccc(-c2nc(N3CC4CCC(C3)O4)c3cnn(C4CCC5(CC4)OCCO5)c3n2)cc1` displayed a % of control in [5] of 82%.

On to `CN(C(=O)c1cnn2cccnc12)c1cc2c(cc1N1CCOCC1)C(=O)N(C[C@@H](F)C(C)(C)O)C2`, for which the dTM in [6] was 0.2 K. For `C=CC(=O)Nc1cc(-n2c(=O)ccc3cnc4ccc(-c5ccc(NS(C)(=O)=O)cc5)cc4c32)ccc1C`, in [7], the % of control is 80%. On to `O[C@H]1CC[C@H](Nc2ncc3nc(Nc4c(F)cc(F)cc4F)n([C@H]4CCOC4)c3n2)CC1`, for which the % of control in [8] was 100%; in test [9], 92%.

In [10], `CCC(=O)N1CCN(c2ccc(-n3c(=O)ccc4cnc5ccc(-c6cnc7ccccc7c6)cc5c43)cc2C(F)(F)F)CC1` displayed a % of control of 99%. In the case of `Nc1cnc(N2CCc3cc(S(=O)(=O)Nc4c(F)cc(Cl)cc4F)cc(N4CCCC4=O)c32)nc1` [TP-020n], the % of control in test [11] worked out at 85%. With `C=CC(=O)Nc1ccc(C(=O)Nc2[nH]nc3c2CN(C(=O)N[C@H](CN(C)C)c2ccccc2)C3(C)C)cc1`, the % of engagement in [12] was determined as 0.4%.

The values above are taken from ChEMBL document CHEMBL5465560, “Selectivity Literature for EUbOPEN Chemogenomic Library” (2024).
